Data from the supplement of paper PMC13386468.

Experiments:
Test in all cases: IC50 for competition of protein binding to Kinobeads
Conditions in all cases: assay detail: Kinobeads competition in P. falciparum blood-stage lysate
UniProt Q8IJN7 = biological target: UniProt Q8IJN7
UniProt Q8IDR9 = biological target: UniProt Q8IDR9
UniProt Q8I5C6 = biological target: UniProt Q8I5C6
UniProt Q8I0V4 = biological target: UniProt Q8I0V4
UniProt Q8IJT1 = biological target: UniProt Q8IJT1
UniProt Q8IKK4 = biological target: UniProt Q8IKK4
UniProt Q8IL88 = biological target: UniProt Q8IL88
UniProt Q76NL8 = biological target: UniProt Q76NL8
UniProt Q76NL8, sequence (Q76NL8 whole entry): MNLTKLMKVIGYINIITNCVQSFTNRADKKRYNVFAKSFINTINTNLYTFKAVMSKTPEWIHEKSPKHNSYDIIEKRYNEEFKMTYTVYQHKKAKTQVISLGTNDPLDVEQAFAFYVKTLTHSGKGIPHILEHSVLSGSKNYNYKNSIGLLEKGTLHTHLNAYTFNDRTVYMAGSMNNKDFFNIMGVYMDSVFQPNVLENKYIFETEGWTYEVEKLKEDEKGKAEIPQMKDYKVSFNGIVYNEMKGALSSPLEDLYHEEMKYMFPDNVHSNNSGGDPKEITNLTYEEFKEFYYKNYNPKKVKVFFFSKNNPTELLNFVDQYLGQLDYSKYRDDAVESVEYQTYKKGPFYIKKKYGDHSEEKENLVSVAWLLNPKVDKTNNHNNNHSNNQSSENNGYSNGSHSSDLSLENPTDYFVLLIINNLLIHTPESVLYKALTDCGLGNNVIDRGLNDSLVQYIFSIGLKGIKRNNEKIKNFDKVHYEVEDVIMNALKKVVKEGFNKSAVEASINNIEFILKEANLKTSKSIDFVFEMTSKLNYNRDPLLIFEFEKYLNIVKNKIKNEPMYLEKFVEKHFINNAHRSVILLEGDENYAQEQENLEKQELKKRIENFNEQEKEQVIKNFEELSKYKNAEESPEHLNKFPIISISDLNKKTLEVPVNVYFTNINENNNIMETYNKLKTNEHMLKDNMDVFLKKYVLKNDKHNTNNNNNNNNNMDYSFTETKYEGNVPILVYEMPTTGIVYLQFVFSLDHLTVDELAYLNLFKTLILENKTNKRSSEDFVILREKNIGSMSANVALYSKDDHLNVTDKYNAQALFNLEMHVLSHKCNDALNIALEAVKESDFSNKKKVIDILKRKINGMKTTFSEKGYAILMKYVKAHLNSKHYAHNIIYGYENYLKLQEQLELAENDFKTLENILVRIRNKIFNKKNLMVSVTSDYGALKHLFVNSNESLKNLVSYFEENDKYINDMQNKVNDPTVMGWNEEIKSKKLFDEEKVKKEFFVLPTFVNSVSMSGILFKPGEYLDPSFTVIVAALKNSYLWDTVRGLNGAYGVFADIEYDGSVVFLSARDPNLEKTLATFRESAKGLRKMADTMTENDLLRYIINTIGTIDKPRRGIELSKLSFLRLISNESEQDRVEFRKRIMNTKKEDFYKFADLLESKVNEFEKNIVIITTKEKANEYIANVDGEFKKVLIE

UniProt Q8IJR9 = biological target: UniProt Q8IJR9
UniProt Q8IJR9, sequence (Q8IJR9 whole entry): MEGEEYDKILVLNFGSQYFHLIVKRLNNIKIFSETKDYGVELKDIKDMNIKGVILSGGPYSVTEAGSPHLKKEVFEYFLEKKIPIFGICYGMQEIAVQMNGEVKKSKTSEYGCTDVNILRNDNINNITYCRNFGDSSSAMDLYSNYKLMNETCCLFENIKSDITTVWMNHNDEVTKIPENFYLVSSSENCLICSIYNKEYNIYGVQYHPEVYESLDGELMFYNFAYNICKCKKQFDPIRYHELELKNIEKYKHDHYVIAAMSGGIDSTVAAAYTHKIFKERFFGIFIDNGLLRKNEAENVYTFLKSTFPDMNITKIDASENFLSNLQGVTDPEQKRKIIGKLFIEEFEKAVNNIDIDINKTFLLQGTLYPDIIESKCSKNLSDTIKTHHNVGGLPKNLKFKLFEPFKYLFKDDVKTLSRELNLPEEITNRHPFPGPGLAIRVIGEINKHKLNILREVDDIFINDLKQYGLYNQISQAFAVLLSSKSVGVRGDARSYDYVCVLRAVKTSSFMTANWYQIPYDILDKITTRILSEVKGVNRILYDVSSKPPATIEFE

UniProt Q8IM26 = biological target: UniProt Q8IM26
UniProt Q8IL11 = biological target: UniProt Q8IL11
UniProt Q8IL11, sequence (Q8IL11 whole entry): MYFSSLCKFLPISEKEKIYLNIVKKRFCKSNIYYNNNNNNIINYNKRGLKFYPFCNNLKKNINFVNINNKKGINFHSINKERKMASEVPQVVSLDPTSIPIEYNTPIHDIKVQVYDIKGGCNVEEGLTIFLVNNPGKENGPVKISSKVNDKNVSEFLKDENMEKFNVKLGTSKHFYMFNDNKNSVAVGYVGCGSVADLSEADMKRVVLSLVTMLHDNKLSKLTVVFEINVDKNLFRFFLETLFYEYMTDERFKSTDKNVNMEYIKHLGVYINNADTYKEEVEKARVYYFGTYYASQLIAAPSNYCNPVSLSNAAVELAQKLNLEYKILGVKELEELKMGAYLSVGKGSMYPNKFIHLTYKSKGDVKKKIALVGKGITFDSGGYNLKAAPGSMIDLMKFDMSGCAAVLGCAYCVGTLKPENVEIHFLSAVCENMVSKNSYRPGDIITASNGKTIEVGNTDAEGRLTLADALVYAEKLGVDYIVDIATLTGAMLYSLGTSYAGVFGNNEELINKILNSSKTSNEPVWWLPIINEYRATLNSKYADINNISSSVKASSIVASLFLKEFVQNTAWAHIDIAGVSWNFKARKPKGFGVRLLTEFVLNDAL

UniProt Q8IJP8 = biological target: UniProt Q8IJP8
UniProt Q8IJW3 = biological target: UniProt Q8IJW3
UniProt Q8IIG7 = biological target: UniProt Q8IIG7
UniProt Q8IHT9 = biological target: UniProt Q8IHT9
UniProt Q5MYR6 = biological target: UniProt Q5MYR6
UniProt Q8I1V2 = biological target: UniProt Q8I1V2
UniProt Q8ID42 = biological target: UniProt Q8ID42
UniProt Q8I5C4 = biological target: UniProt Q8I5C4
UniProt Q8IJX0 = biological target: UniProt Q8IJX0
UniProt Q8I4Z2 = biological target: UniProt Q8I4Z2
UniProt O77358 = biological target: UniProt O77358
UniProt Q8I2R0 = biological target: UniProt Q8I2R0
UniProt Q8ILL3 = biological target: UniProt Q8ILL3
UniProt Q8IKR1 = biological target: UniProt Q8IKR1
UniProt Q8IE81 = biological target: UniProt Q8IE81
UniProt C0H4C5 = biological target: UniProt C0H4C5
UniProt Q9TY96 = biological target: UniProt Q9TY96
UniProt Q9TY96, sequence (Q9TY96 whole entry): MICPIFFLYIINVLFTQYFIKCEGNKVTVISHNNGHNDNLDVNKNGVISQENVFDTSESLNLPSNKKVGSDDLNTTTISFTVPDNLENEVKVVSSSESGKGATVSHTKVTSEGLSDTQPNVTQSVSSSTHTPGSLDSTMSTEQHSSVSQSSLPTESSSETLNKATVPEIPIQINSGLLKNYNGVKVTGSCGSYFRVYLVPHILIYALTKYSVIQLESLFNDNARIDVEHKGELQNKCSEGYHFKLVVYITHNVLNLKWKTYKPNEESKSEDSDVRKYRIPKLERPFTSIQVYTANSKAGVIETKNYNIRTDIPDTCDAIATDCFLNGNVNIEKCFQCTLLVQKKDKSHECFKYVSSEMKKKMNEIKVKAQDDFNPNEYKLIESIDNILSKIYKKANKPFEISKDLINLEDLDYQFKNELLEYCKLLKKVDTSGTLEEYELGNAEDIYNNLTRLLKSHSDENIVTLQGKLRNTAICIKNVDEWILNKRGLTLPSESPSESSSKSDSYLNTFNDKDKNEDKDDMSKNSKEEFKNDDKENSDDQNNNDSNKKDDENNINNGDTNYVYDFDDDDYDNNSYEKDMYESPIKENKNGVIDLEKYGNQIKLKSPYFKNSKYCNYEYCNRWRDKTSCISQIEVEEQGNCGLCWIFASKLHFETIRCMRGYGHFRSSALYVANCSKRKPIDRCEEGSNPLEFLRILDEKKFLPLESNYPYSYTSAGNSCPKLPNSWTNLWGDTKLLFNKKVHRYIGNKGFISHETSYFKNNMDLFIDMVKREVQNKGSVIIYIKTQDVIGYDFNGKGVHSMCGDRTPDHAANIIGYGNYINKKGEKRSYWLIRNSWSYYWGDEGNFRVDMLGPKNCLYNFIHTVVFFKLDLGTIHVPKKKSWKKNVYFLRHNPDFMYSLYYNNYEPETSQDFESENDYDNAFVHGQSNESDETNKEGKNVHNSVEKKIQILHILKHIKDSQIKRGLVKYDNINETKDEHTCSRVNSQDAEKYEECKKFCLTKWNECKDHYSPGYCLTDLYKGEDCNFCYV

UniProt C6KT23 = biological target: UniProt C6KT23
UniProt Q8I526 = biological target: UniProt Q8I526
UniProt Q8IAK9 = biological target: UniProt Q8IAK9
UniProt Q8IKS6 = biological target: UniProt Q8IKS6
UniProt Q8IDZ9 = biological target: UniProt Q8IDZ9
UniProt C0H4R8 = biological target: UniProt C0H4R8
UniProt Q8I502 = biological target: UniProt Q8I502
UniProt C6KT19 = biological target: UniProt C6KT19
UniProt Q8ILC1 = biological target: UniProt Q8ILC1
UniProt Q8ILC1, sequence (Q8ILC1 whole entry): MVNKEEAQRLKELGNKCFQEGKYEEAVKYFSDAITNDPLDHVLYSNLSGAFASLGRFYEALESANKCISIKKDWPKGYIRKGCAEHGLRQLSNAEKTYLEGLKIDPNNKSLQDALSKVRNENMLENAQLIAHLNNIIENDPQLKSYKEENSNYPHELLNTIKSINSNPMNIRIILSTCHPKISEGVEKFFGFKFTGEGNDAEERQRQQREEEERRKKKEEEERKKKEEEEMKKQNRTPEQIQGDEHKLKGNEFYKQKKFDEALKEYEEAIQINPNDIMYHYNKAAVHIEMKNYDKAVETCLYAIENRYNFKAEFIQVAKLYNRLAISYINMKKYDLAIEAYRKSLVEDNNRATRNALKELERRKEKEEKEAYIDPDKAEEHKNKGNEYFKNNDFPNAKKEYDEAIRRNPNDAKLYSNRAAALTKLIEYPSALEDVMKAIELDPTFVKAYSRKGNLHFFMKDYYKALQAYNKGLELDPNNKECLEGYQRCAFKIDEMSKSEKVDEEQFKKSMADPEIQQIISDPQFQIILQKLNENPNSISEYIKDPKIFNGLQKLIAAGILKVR

UniProt Q8I463 = biological target: UniProt Q8I463
UniProt Q8ID28 = biological target: UniProt Q8ID28
UniProt Q76NM6 = biological target: UniProt Q76NM6
UniProt Q76NM6, sequence (Q76NM6 whole entry): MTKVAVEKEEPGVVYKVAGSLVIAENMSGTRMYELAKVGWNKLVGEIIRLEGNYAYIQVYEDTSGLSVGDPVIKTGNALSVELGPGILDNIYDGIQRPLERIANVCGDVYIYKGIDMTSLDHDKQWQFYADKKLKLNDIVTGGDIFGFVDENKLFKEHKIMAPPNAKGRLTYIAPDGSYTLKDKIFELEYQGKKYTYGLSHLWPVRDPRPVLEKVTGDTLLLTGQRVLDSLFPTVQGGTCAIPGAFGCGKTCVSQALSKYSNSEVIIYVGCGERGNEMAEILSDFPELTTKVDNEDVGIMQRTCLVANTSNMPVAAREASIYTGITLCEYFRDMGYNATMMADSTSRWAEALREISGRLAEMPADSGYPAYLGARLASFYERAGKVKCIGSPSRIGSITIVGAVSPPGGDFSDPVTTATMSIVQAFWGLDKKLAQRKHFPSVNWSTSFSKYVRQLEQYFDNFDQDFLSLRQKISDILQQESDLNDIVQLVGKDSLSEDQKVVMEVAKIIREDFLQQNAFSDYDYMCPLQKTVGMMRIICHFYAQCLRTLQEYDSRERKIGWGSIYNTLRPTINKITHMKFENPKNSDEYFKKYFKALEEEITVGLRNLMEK

UniProt Q8IKV6 = biological target: UniProt Q8IKV6
UniProt Q8I2I8 = biological target: UniProt Q8I2I8
UniProt Q8IBP8 = biological target: UniProt Q8IBP8
UniProt Q8IBJ1 = biological target: UniProt Q8IBJ1
UniProt Q8IB72 = biological target: UniProt Q8IB72
UniProt C0H4K6 = biological target: UniProt C0H4K6
UniProt O96217 = biological target: UniProt O96217
UniProt Q8IJA0 = biological target: UniProt Q8IJA0
UniProt Q8IBU2 = biological target: UniProt Q8IBU2
UniProt C6KSV2 = biological target: UniProt C6KSV2
UniProt O77361 = biological target: UniProt O77361
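Further: native unpurified kinases from lysate captured on beads bearing immobilized kinase inhibitors, with bead-bound kinases quantified by mass spectrometry across compound doses.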

UniProt Q8IJN7, sequence (Q8IJN7 whole entry): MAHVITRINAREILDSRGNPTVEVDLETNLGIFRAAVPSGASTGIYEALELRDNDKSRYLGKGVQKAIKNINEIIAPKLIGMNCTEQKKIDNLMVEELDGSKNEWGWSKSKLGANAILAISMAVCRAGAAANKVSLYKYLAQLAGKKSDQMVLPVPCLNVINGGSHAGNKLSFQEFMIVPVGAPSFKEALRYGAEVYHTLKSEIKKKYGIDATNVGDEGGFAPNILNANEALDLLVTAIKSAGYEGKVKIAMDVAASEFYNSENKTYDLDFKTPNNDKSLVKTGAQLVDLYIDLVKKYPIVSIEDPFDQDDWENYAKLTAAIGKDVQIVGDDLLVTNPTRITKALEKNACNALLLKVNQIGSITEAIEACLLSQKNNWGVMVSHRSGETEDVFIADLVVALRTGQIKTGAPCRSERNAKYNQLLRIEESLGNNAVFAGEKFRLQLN

For `O=c1[nH]c2ccc(Cl)cc2c(NC2CN3CCC2CC3)c1-c1nc2ccccc2[nH]1` (stereo unspecified) [CHIR-124], the IC50 (UniProt Q8IJN7) was greater than 20 µM, the IC50 (UniProt Q8IDR9) was greater than 20 µM and the IC50 (UniProt Q8I5C6) was greater than 20 µM. For the same compound, the IC50 (UniProt Q8I0V4) was greater than 20 µM, the IC50 (UniProt Q8IJT1) was greater than 20 µM and the IC50 (UniProt Q8IKK4) was greater than 20 µM. It also gave an IC50 (UniProt Q8IL88) greater than 20 µM, an IC50 (UniProt Q76NL8) greater than 20 µM and an IC50 (UniProt Q8IJR9) greater than 20 µM. It also gave an IC50 (UniProt Q8IM26) greater than 20 µM, an IC50 (UniProt Q8IL11) greater than 20 µM and an IC50 (UniProt Q8IJP8) greater than 20 µM. It also gave an IC50 (UniProt Q8IJW3) greater than 20 µM, an IC50 (UniProt Q8IIG7) greater than 20 µM and an IC50 (UniProt Q8IHT9) greater than 20 µM. For the same compound, the IC50 (UniProt Q5MYR6) was greater than 20 µM, the IC50 (UniProt Q8I1V2) was greater than 20 µM and the IC50 (UniProt Q8ID42) was greater than 20 µM. For the same compound, the IC50 (UniProt Q8I5C4) was greater than 20 µM, the IC50 (UniProt Q8IJX0) was greater than 20 µM and the IC50 (UniProt Q8I4Z2) was greater than 20 µM. It also gave an IC50 (UniProt O77358) greater than 20 µM, an IC50 (UniProt Q8I2R0) greater than 20 µM and an IC50 (UniProt Q8ILL3) greater than 20 µM. For the same compound, the IC50 (UniProt Q8IKR1) was greater than 20 µM, the IC50 (UniProt Q8IE81) was greater than 20 µM and the IC50 (UniProt C0H4C5) was greater than 20 µM. For the same compound, the IC50 (UniProt Q9TY96) was greater than 20 µM, the IC50 (UniProt C6KT23) was greater than 20 µM and the IC50 (UniProt Q8I526) was greater than 20 µM. It also gave an IC50 (UniProt Q8IAK9) greater than 20 µM, an IC50 (UniProt Q8IKS6) greater than 20 µM and an IC50 (UniProt Q8IDZ9) greater than 20 µM. It also gave an IC50 (UniProt C0H4R8) of 5.36 µM, an IC50 (UniProt Q8I502) greater than 20 µM and an IC50 (UniProt C6KT19) greater than 20 µM. For the same compound, the IC50 (UniProt Q8ILC1) was greater than 20 µM, the IC50 (UniProt Q8I463) was greater than 20 µM and the IC50 (UniProt Q8ID28) was greater than 20 µM. The IC50 (UniProt Q76NM6) was greater than 20 µM, the IC50 (UniProt Q8IKV6) was greater than 20 µM and the IC50 (UniProt Q8I2I8) was greater than 20 µM. It also gave an IC50 (UniProt Q8IBP8) greater than 20 µM, an IC50 (UniProt Q8IBJ1) greater than 20 µM and an IC50 (UniProt Q8IB72) greater than 20 µM. The IC50 (UniProt C0H4K6) was greater than 20 µM, the IC50 (UniProt O96217) was greater than 20 µM and the IC50 (UniProt Q8IJA0) was greater than 20 µM. The IC50 (UniProt Q8IBU2) was greater than 20 µM, the IC50 (UniProt C6KSV2) was greater than 20 µM and the IC50 (UniProt O77361) was greater than 20 µM.
